The subject of this assay is HIV-1 strain 92-HT599. Description: Anti HIV-1 p24 assay, strain 92-HT599 in MT2 cells. It counts as cell-based. Conditions: for IC50: MT2 cells infected with HIV-1 92-HT599, p24, 96 hours. On the procedure: MT2 cells were infected with the HIV-1 strain 92-HT599 (10TCID50/30000 cells). The infected cells are plated at the concentration of 30000 cells per well in a 96 well assay micro plate. A test compound was added to the micro plate in a defined format with the final concentration of DMSO (vehicle) being not more than 1%. Incubation was carried out in a CO2 incubator for 96 hours for viral infection. At the end of incubation period an aliquot from each well was taken for p24 estimation. The quantitation of p24 is an index for antiviral activity of the compound. Percent inhibition was calculated with reference to control values (vehicle).
P24 estimation was carried out using an Advance Biosciences kit as per the procedure as detailed by supplier.
[…] was made by dissolving test compound in DMSO. Subsequent dilutions were made with DMSO to make necessary working stocks (100×).

[1] abbreviates: Human immunodeficiency virus 1, MT2 cells, HIV-1 92-HT599, p24, concentration 0.1 μM, read-out: Percent inhibition.
[2] abbreviates: Human immunodeficiency virus 1, MT2 cells, HIV-1 92-HT599, p24, concentration 1 μM, read-out: Percent inhibition.
Setting [3] is: Human immunodeficiency virus 1, MT2, read-out: Percent inhibition.

Read-outs that look alike come from different tables or passages of the source.

Usually inhibition stands for how much of the control response was suppressed. Regarding `C=C(C)[C@@H]1CC[C@]2(C(=O)N[C@H]3C[C@@H](C(=O)N4CCCC4)C3(C)C)CC[C@]3(C)[C@H](CC[C@@H]4[C@@]5(C)CC[C@H](O)C(C)(C)[C@@H]5CC[C@]43C)[C@@H]12` [Example 14, (1R,3aS,5aR,5bR,7aR,9S,11aR,11bR,13aR,13bR)-N-((1S,3R)-2,2-dimethyl-3-(pyrrolidine-1-carbonyl)cyclobutyl)-9-hydroxy-5a,5b,8,8,11a-pentamethyl-1-(prop-1-en-2-yl)icosahydro-1H-cyclopenta[a]chrysene-3a-carboxamide], the inhibition at 0.1 µM under setting [1] was 71%. The inhibition at 1 µM under setting [2] is 32%.

Turning to `C=C(C)[C@@H]1CC[C@]2(C(=O)N[C@@H]3CC[C@H](CN4CCOCC4)C3)CC[C@]3(C)[C@H](CC[C@@H]4[C@@]5(C)CC[C@H](O)C(C)(C)[C@@H]5CC[C@]43C)[C@@H]12` [Example 23, (1R,3aS,5aR,5bR,7aR,9S,11aR,11bR,13aR,13bR)-9-hydroxy-5a,5b,8,8,11a-pentamethyl-N-((1R,3S)-3-(morpholinomethyl)cyclopentyl)-1-(prop-1-en-2-yl)icosahydro-1H-cyclopenta[a]chrysene-3a-carboxamide], the inhibition at 0.1 µM under setting [1] was 11%. In addition, the inhibition at 1 µM under setting [2] came out at 37%.

`C=C(C)[C@@H]1CCC2(C(=O)N3C4CCC3CC(n3c(C)nnc3C(C)C)C4)CC[C@]3(C)[C@H](CC[C@@H]4[C@@]5(C)CC[C@H](O)C(C)(C)[C@@H]5CC[C@]43C)[C@@H]12` (stereo partly drawn) [Example 25, ((1R,5aR,5bR,7aR,9S,11aR,11bR,13aR,13bR)-9-hydroxy-5a,5b,8,8,11a-pentamethyl-1-(prop-1-en-2-yl)icosahydro-1H-cyclopenta[a]chrysen-3a-yl)(3-(3-isopropyl-5-methyl-4H-1,2,4-triazol-4-yl)-8-azabicyclo[3.2.1]octan-8-yl)methanone]: the inhibition at 0.1 µM under setting [1] was determined as 33%. Moreover, the inhibition at 1 µM under setting [2] worked out at 25%.

As for `C=C(C)[C@@H]1CC[C@]2(C(=O)N[C@@H]3C=C[C@H](CN4CCOCC4)C3)CC[C@]3(C)[C@H](CC[C@@H]4[C@@]5(C)CC[C@H](O)C(C)(C)[C@@H]5CC[C@]43C)[C@@H]12` [Example 26, (1R,3aS,5aR,5bR,7aR,9S,11aR,11bR,13aR,13bR)-9-hydroxy-5a,5b,8,8,11a-pentamethyl-N-((1S,4R)-4-(morpholinomethyl)cyclopent-2-enyl)-1-(prop-1-en-2-yl)icosahydro-1H-cyclopenta[a]chrysene-3a-carboxamide], under setting [3], the inhibition at 0.1 µM stood at 52% and the inhibition at 1 µM was determined as 53%.

As to `C=C(C)[C@@H]1CC[C@]2(C(=O)N[C@@H]3C[C@H](C(=O)N[C@H](C(=O)O)C(C)C)C3(C)C)CC[C@]3(C)[C@H](CC[C@@H]4[C@@]5(C)CC[C@H](O)C(C)(C)[C@@H]5CC[C@]43C)[C@@H]12` [Example 40, (S)-2-((1S,3R)-3-((1R,3aS,5aR,5bR,7aR,9S,11aR,11bR,13aR,13bR)-9-hydroxy-5a,5b,8,8,11a-pentamethyl-1-(prop-1-en-2-yl)icosahydro-1H-cyclopenta[a]chrysene-3a-carboxamido)-2,2-dimethylcyclobutanecarboxamido)-3-methylbutanoic acid], under setting [1], the inhibition at 0.1 µM came out at 13%. For the same compound, the inhibition at 1 µM under setting [2] was found to be 42%.

For `C=C(C)[C@@H]1CC[C@]2(C(=O)N[C@@H]3C[C@H](C(=O)N4CCCC4)C3(C)C)CC[C@]3(C)[C@H](CC[C@@H]4[C@@]5(C)CC[C@H](O)C(C)(C)[C@@H]5CC[C@]43C)[C@@H]12` [Example 44, (1R,3aS,5aR,5bR,7aR,9S,11aR,11bR,13aR,13bR)-N-((1R,3S)-2,2-dimethyl-3-(pyrrolidine-1-carbonyl)cyclobutyl)-9-hydroxy-5a,5b,8,8,11a-pentamethyl-1-(prop-1-en-2-yl)icosahydro-1H-cyclopenta[a]chrysene-3a-carboxamide], under setting [1], the inhibition at 0.1 µM stood at 15%. Besides, under setting [2], the inhibition at 1 µM came to 43%.

A word on the IC50: it is the concentration that inhibits the measured activity by half. A lower IC50 goes with greater potency in that assay. `C=C(C)[C@@H]1CC[C@]2(C(=O)N[C@@H]3CC[C@H](CN4CCCC(C)C4)C3)CC[C@]3(C)[C@H](CC[C@@H]4[C@@]5(C)CC[C@H](OC(=O)CC(C)(C)C(=O)O)C(C)(C)[C@@H]5CC[C@]43C)[C@@H]12` (stereo partly drawn) [Example 51, 2,2-dimethyl-4-oxo-4-((1R,3aS,5aR,5bR,7aR,9S,11aR,11bR,13aR,13bR)-5a,5b,8,8,11a-pentamethyl-3a-((1R,3S)-3-((3-methylpiperidin-1-yl)methyl)cyclopentylcarbamoyl)-1-(prop-1-en-2-yl)icosahydro-1H-cyclopenta[a]chrysen-9-yloxy)butanoic acid]: it took 1 nM to reach half-maximal inhibition (Human immunodeficiency virus 1) (IC50).

`C=C(C)[C@@H]1CC[C@]2(C(=O)N[C@@H]3C[C@H](C(=O)N4CCCCC4)C3(C)C)CC[C@]3(C)[C@H](CC[C@@H]4[C@@]5(C)CC[C@H](OC(=O)[C@@H]6C[C@H](C(=O)O)C6(C)C)C(C)(C)[C@@H]5CC[C@]43C)[C@@H]12` [Example 59, (1S,3R)-3-(((1R,3aS,5aR,5bR,7aR,9S,11aR,11bR,13aR,13bR)-3a-((1R,3S)-2,2-dimethyl-3-(piperidine-1-carbonyl)cyclobutylcarbamoyl)-5a,5b,8,8,11a-pentamethyl-1-(prop-1-en-2-yl)icosahydro-1H-cyclopenta[a]chrysen-9-yloxy)carbonyl)-2,2-dimethylcyclobutanecarboxylic acid] showed an IC50 (Human immunodeficiency virus 1) of 6 nM.

In turn, `C=C(C)[C@@H]1CC[C@]2(C(=O)N[C@H]3C[C@@H](C(=O)N4CCOCC4)C3(C)C)CC[C@]3(C)[C@H](CC[C@@H]4[C@@]5(C)CC[C@H](OC(=O)[C@@H]6C[C@H](C(=O)O)C6(C)C)C(C)(C)[C@@H]5CC[C@]43C)[C@@H]12` [Example 61, (1S,3R)-3-(((1R,3aS,5aR,5bR,7aR,9S,11aR,11bR,13aR,13bR)-3a-((1S,3R)-2,2-dimethyl-3-(morpholine-4-carbonyl)cyclobutylcarbamoyl)-5a,5b,8,8,11a-pentamethyl-1-(prop-1-en-2-yl)icosahydro-1H-cyclopenta[a]chrysen-9-yloxy)carbonyl)-2,2-dimethylcyclobutanecarboxylic acid] registered an IC50 (Human immunodeficiency virus 1) of 7 nM.

For `C=C(C)[C@@H]1CC[C@]2(C(=O)NC3CCC(CN4CCCCC4)C3)CC[C@]3(C)[C@H](CC[C@@H]4[C@@]5(C)CC[C@H](OC(=O)CCC(=O)O)C(C)(C)[C@@H]5CC[C@]43C)[C@@H]12` (stereo partly drawn) [Example 96, 4-oxo-4-((1R,3aS,5aR,5bR,7aR,9S,11aR,11bR,13aR,13bR)-5a,5b,8,8,11a-pentamethyl-3a-(3-(piperidin-1-ylmethyl)cyclopentylcarbamoyl)-1-(prop-1-en-2-yl)icosahydro-1H-cyclopenta[a]chrysen-9-yloxy)butanoic acid], inhibition (Human immunodeficiency virus 1) was half-maximal at 0.1 nM (IC50).

As to `C=C(C)[C@@H]1CC[C@]2(C(=O)NC3CC(C(=O)NCCC(=O)N4CCOCC4)C3(C)C)CC[C@]3(C)[C@H](CC[C@@H]4[C@@]5(C)CC[C@H](O)C(C)(C)[C@@H]5CC[C@]43C)[C@@H]12` (stereo partly drawn) [Example 97, (1R,3aS,5aR,5bR,7aR,9S,11aR,11bR,13aR,13bR)-N-(2,2-dimethyl-3-(3-morpholino-3-oxopropylcarbamoyl)cyclobutyl)-9-hydroxy-5a,5b,8,8,11a-pentamethyl-1-(prop-1-en-2-yl)icosahydro-1H-cyclopenta[a]chrysene-3a-carboxamide], the inhibition at 0.1 µM under setting [1] worked out at 37%. In addition, the inhibition at 1 µM under setting [2] turned out to be 67%.

The values above are taken from patent US9067966B2, “Lupeol-type triterpene derivatives as antivirals” (priority 2009, dated 2015).
